Series [1] deals with pentylenetetrazol (PTZ) seizures in mice. Put plainly: Pentylenetetrazol Seizure Threshold Test (PTZ). Type of series: in vivo, mouse (female CF-1). The conditions noted are these: Mus musculus, 0.5 h, ip, 30 min before pentylenetetrazol 85 mg/kg ip, read-out: Convulsant Challenge ED50, PTZ. The procedure: Pentylenetetrazol Seizure Threshold Test (PTZ)
Anticonvulsant screening was accomplished by methods based on those of Swinyard and Woodhead using female CF-1 strain mice. […] The animals were placed in isolation cages and observed for the next 30 minutes for the presence or absence of a seizure. A threshold convulsion is defined as one episode of clonic spasms that persists for at least a 5-sec period.

In series [2] the test system is maximal electroshock (MES) seizures in mice. Put plainly: Maximal Electroshock Seizure Test (MES). The class given is in vivo. The conditions noted are these: Mus musculus, 0.5 h, ip, 30 min before electroshock 50 mA 0.2 sec, read-out: Convulsant Challenge ED50, MES. The procedure: Maximal Electroshock Seizure Test (MES)
Test compounds were dissolved in 30% polyethylene glycol and given by intraperitoneal (ip) injections in a volume of 0.01 mL/g of body weight. […] Corneal electrodes were applied to the eyes, and an electrical stimulus consisting of a 60-Hz alternating current of 50 mA was delivered for 0.2 sec. The animals were held by hand and released at the time of stimulation for observation of the seizure. Abolition of the hindleg tonic extension component was taken as the endpoint for this test.
For orientation: Protection in the maximal electroshock model is a classic sign of anticonvulsant action.

Series [3] is described as follows: Rotorod Test for Toxicity (neurotoxicity). The class given is in vivo, mouse. The settings on record: mouse, in vivo, mice, ip, 30 min. The procedure:
(§1) Rotorod Test for Toxicity
(§2) This test is used in mice to assess neurotoxicity. Mice were placed on a 1 in. diameter rod, which rotates at 6 rpm, and tested for maintenance of their equilibrium for 10 min. All mice were pre-tested before a test substance is given. Test compounds are dissolved in 30% polyethylene glycol and given by intraperitoneal (ip) injections in a volume of 0.01 mL/g of body weight. […] This test also measures sedative effect of the compound tested. […] 21, 1985.
(In general: Falling from the rotarod earlier than controls is read as motor impairment.)

A short description of series [4]: Convulsant activity (observation of seizures in injected mice). The settings on record: mouse, in vivo, read-out: Convulsive Activity CD50. As for the experimental part: Convulsant activity of test compounds is assessed by monitoring injected mice by monitoring seizures by observing for the onset of myoclonic twitches, generalized clonic seizures and tonic seizures.

For a further series, the system named is sedation in mice. The conditions noted are these: 100 mg/kg; cited from earlier work.
For the next series, the system named is GABAA receptor. Put plainly: Potentiation of GABA currents in cultured rat hippocampal neurons (GABAA receptor electrophysiology test, whole-cell patch clamp). Type of series: cell-based, rat (Sprague-Dawley).
The next series has as its system neurotoxicity in mice. Put plainly: Rotorod Test for Toxicity (neurotoxicity). Type of series: in vivo, mouse. The settings on record: ip, 30 min. As for the experimental part:
as §1, §2

Series [5] relates to anxiety in mice (plus-maze). Put plainly: Anxiolytic plus-maze test. The conditions noted are these: for Time spent on Plus-Maze Open Arms (% of Control): mice, ip, 30 min, 5 min test. Type of series: in vivo, mouse (male NIH Swiss). The source says: A modification of the plus-maze test (Lister R G (1987) "The use of a plus-maze to measure anxiety in the mouse" Psychopharmacology, 92, 180-185.) was used to measure the anxiolytic activity of the compounds of this invention in mice. The plus-maze apparatus used in the test consisted of four 30 cm×5 cm arms, two of which were enclosed by 16 cm high walls while the other two were unwalled. The four arms radiated out from a 5×5 cm central platform. The entire maze was elevated 34 cm on legs. The floor parts of the maze were made of wood painted black. The walls were clear plexiglass.
Male mice of the NIH Swiss strain are used in the test which is carried out in a room with no distractions. Test compounds were dissolved in 30% polyethylene glycol and given by intraperitoneal (ip) injections in a volume of 0.01 mL/g of body weight. […] During each 5 minute test, the number of entries to open arms and closed arms and the amount of time spent on each were recorded. A mouse has entered an arm when all four feet are on the arm. Each mouse was used only once. The anxiolytic dose of a test compound is that dose which causes a significant increase in the amount of time the test mouse spends in the open arms of the plus-maze in comparison to the amount of time a control mouse not receiving a test compound spends in the open arms of the maze.

A further series relates to convulsant seizures. The conditions noted are these: in vivo; cited from earlier work.

A value given as a limit tells only on which side of the number the result lay.

Results on 21 molecules are retold here after patent publication US5776959A, “Anticonvulsant and anxiolytic lactam and thiolactam derivatives” (priority 1995, dated 1998).

Procedure for GABAA receptor: Hippocampal Cell Culture Methods
Under halothane anaesthesia, 1 day old female Sprague-Dawley rats were sacrificed by rapid decapitation and the hippocampi were dissected, minced and incubated in 3 mL of Leibovitz's L-15 containing 1 mg/mL papain and 0.2 mg/mL bovine serum albumin (BSA) for 20 min. at 37° C. The papain solution was removed and the hippocampi were triturated with pasteur pipettes in growth medium. The resulting suspension was centrifuged through 2 mL of medium containing 10 mg/mL trypsin inhibitor and 10 mg/mL BSA. The cells were resuspended into growth medium and plated, 2.5×10^5 cells/dish, on a monolayer of cortical glial cells in 35 mm plastic culture dishes. The culture dishes were pretreated with poly-L-lysine followed by plating of glial cells harvested from the cortices of 2-6 day postnatal rats four days prior to neuron plating. […]
Medium in the culture dishes was replaced with an extracellular solution containing: 140 mM NaCl, 3 mM KCl, 10 mM HEPES, 5 mm MgCl2, and 5.5 mM glucose. Neurons were recorded using the whole cell configuration of the patch clamp technique, (Hamil P O, Marty A, Neher E, Sakmann B, Sakmann J F (1981) "Improved patch-clamp techniques for high resolution current recordings from cells and cell-free membrane patches" Pfluegers Arch., 391, 85-100.) and the neuronal membrane was clamped to a potential of 130 mV. […]

As to `CC1CCCNC1=O` (stereo not drawn) [3-Methyl-2-Piperidinone, reference compound], the ED50 in series [1] and in series [2] was above 600 mg/kg each time. The TD50 at 0.5 h in [3] was above 600 mg/kg.
`CC1(C)CNC(=O)C1(C)C` [3,3,4,4-Tetramethyl-2-pyrrolidinone]: the CD50 (convulsant dose, 50%) in series [4] worked out at 32 mg/kg.
Consider `O=C1NCCCC1Cc1ccccc1` (stereo not drawn) [3-Phenylmethyl-2-piperidinone, 3-phenylmethyl-2-piperidinone], for which the results for the ED50 in series [1] and in series [2] were 85 mg/kg and 42 mg/kg, respectively. In series [3], this molecule returned a TD50 at 0.5 h of 294 mg/kg.
Consider `CCC1(C)CCN(C)C1=O` (stereo not drawn) [1,3-Dimethyl-3-ethyl-2-pyrrolidinone], for which the ED50 in series [1] worked out at 259 mg/kg. Also, the TD50 at 0.5 h in series [3] was determined as 520 mg/kg.
`CCC1(CC)CCCNC1=O` [3,3-Diethyl-2-piperidinone]: the ED50 in [1] amounted to 39 mg/kg; in series [2] it was 56 mg/kg. The same molecule showed a TD50 at 0.5 h in series [3] of 177 mg/kg. In addition, in the series with sedation in mice, the “sedative activity reported in literature” value is reported as “weak sedative activity”.
Turning to `CCC1(CC)CC(C)(C)NC1=O` [3,3-Diethyl-5,5-dimethyl-2-pyrrolidinone], the CD50 (convulsant dose, 50%) in [4] was determined as 75 mg/kg.
In the case of `CCC1CCCNC1=O` (stereo not drawn) [3-Ethyl-2-Piperidinone, reference compound], the ED50 in series [1] stood at 339 mg/kg. The molecule further came in with a TD50 at 0.5 h in [3] of 382 mg/kg.
Take `CCC1(CC)CCNC1=O` [3,3-Diethyl-2-pyrrolidinone]: the “% Potentiation Relative to Control (N)” value with GABAA receptor (compound 1 mM, 3 μM GABA, mean ± SEM, percent of control response (100%)) was 274 ± 64%. The “enhancement of GABA-mediated chloride ion currents” value with GABAA receptor (cultured rat hippocampal neurons) is given as “more effectively than the previously described α-ethyl-α-methyl-γ-thiobutyrolactone”. Also, the ED50 in series [1] stood at 46 mg/kg; in [2] it was 174 mg/kg. In the series with neurotoxicity in mice, the “Toxicity TD50” value was 260 mg/kg. In [5] (compared to α-ethyl-α-methyl-γ-thiobutyrolactone, Table 3), the “anxiolytic activity” value is reported as “significantly stronger anxiolytic activity”. Further, the figures for the “Time spent on Plus-Maze Open Arms (% of Control)” value in series [5] (dose 100 mg/kg) and in series [5] (dose 175 mg/kg) were 179% and 253%, respectively.
With `CCC1CC(C)(C)NC1=O` (stereo not drawn) [3-Ethyl-5,5-dimethyl-2-pyrrolidinone], the CD50 (convulsant dose, 50%) in series [4] was 106 mg/kg.
Consider `CCC1(C)CCCNC1=O` (stereo not drawn) [3-Ethyl-3-Methyl-2-Piperidinone, 3-ethyl-3-methyl-2-piperidinone], for which the ED50 came out at 162 mg/kg in series [1] and 198 mg/kg in [2]. Moreover, the TD50 at 0.5 h in [3] amounted to 382 mg/kg.
Regarding `CC1(C)CCC(=O)N1` [5,5-Dimethyl-2-pyrrolidinone], in series [4], the CD50 (convulsant dose, 50%) is 387 mg/kg.
As for `CC1(C)CCSC1=O` [α,α-dimethyl-y-thiobutyrolactone], the ED50 in series [1] was above 500 mg/kg.
For the molecule `O=C1CCCCN1` [2-Piperidinone, reference compound], the ED50 in [1] is above 600 mg/kg. In series [3], this molecule yielded a TD50 at 0.5 h above 600 mg/kg.
`O=C1NCCC1Cc1ccccc1` (stereo not drawn) [3-Phenylmethyl-2-pyrrolidinone, 3-phenylmethyl-2-pyrrolidinone]: the ED50 in [1] stood at 71 mg/kg; in [2], 41 mg/kg. In addition, in the series on neurotoxicity in mice, the “Toxicity TD50” value is given as 144 mg/kg.
As to `CC1(Cc2ccccc2)CCCNC1=O` (stereo not drawn) [3-Methyl-3-phenylmethyl-2-piperidinone, 3-methyl-3-phenylmethyl-2-piperidinone], the ED50 in [1] was 56 mg/kg; in series [2], 49 mg/kg. Also, the TD50 at 0.5 h in series [3] is 131 mg/kg.
With `CC1(C)CCNC1=O` [3,3-Dimethyl-2-pyrrolidinone, 3,3-dimethyl-2-pyrrolidinone, reference compound], the ED50 in [1] was 708 mg/kg; in series [2], above 600 mg/kg. Besides, the TD50 at 0.5 h in series [3] turned out to be 900 mg/kg. The “anticonvulsant activity reported in literature” value in the series with convulsant seizures is “no anticonvulsant activity”.
As to `CC1(C)CNC(=O)C1` [4,4-Dimethyl-2-pyrrolidinone, reference compound], the ED50 in [1] was 600 mg/kg. In [3], this molecule returned a TD50 at 0.5 h above 600 mg/kg.
For the molecule `CCC1(Cc2ccccc2)CCCNC1=O` (stereo not drawn) [3-Ethyl-3-phenylmethyl-2-piperidinone, 3-ethyl-3-phenylmethyl-2-piperidinone], the ED50 in series [1] was 61 mg/kg; in series [2] it was 79 mg/kg. The TD50 at 0.5 h in [3] is 102 mg/kg.
As to `CC1CCNC1=O` (stereo not drawn) [3-Methyl-2-pyrrolidinone, reference compound], the ED50 in [1] was above 900 mg/kg; in series [2], above 750 mg/kg. The molecule further showed a TD50 at 0.5 h in series [3] of around 900 mg/kg.
Regarding `O=C1CCCN1` [2-Pyrrolidinone, reference compound], the ED50 in series [1] was above 900 mg/kg; in [2] it was above 600 mg/kg. Moreover, the “Toxicity TD50” value in the series with neurotoxicity in mice was above 900 mg/kg.
With `CCC1(C)CNC(=O)C1` (stereo not drawn) [4-Ethyl-4-Methyl-2-pyrrolidinone, 4-ethyl-4-methyl-2-pyrrolidinone, reference compound], the ED50 was 327 mg/kg in [1] and above 300 mg/kg in series [2]. For the same molecule, the TD50 at 0.5 h in series [3] was above 300 mg/kg. Also, the “anticonvulsant activity reported in literature” value with convulsant seizures is on record as “much less active”.

The ED50 is the midpoint of the dose-response relation. A word on the TD50: it is the 50% point of the dose-response relation for the toxic effect studied. Lower therefore signals greater toxicity.
